The source of these data is PMC8512853, “Synthesis, Bioactivity, Pharmacokinetic and Biomimetic Properties of Multi-Substituted Coumarin Derivatives” (Molecules, 2021).

Data set [1] in a line: IAM chromatography (IAM.PC.DD.2 column) and estimated human oral absorption. The class given is in vitro ADME. To be noted: for %HOA estimated human oral absorption: Equation (1) from logkw and physicochemical properties; for logkw (IAM retention factor): pH 7.40, IAM.PC.DD.2, intercept at pure aqueous phase. Here is the method: The immobilized artificial membrane (IAM) chromatographic behavior of the 25 novel coumarin derivatives was studied. IAM stationary phases consisting of monolayers of phospholipids (e.g., phosphatidylcholine, PC) immobilized on a propylamine–silica support can simulate interactions of chemicals with cell membranes.
Using an IAM.PC.DD2 column (Regis Technologies) as the stationary phase with PBS as the mobile phase at pH = 7.40, and a flow rate of 3 mL/min in the presence of acetonitrile fractions (C%) of 10%, 15%, 20%, 25%, and 30%, a logkC% value was obtained via the retention time for each concentration of CH3CN. Retention factors were then used to plot logkC% as a function of acetonitrile fraction. The intercept of the linear regression corresponds to the logkw, corresponding to pure aqueous phase.
(1) % HOA=100/1+10^−(2.17+0.88*logkw−0.006*MW−0.83*A−0.53*F^*++1.18*F^*−)
(§1) The physicochemical and biomimetic properties of the new coumarin analogues were studied using liquid chromatography (HPLC) in 220–230 nm Two types of chromatographic columns were used: (i) immobilized artificial membrane (IAM) ([…].PC.DD.2, Regis Technologies) column and (ii) human serum albumin (HSA) (CHIRAL PAK) column.
(§2) The training set consisted of 25 neutral and slightly acidic compounds. Their IAM retention factors were measured at pH 7.40 on a IAM.PC.DD.2 column. The mobile phase consisted of acetonitrile solvent (CH3CN) in various concentrations (10%, 15%, 20%, 25%, 30%) and a flow rate of 3 mL/min was selected. Their HSA retention factors were measured at pH 7.00 on HSA column. The mobile phase consisted of acetonitrile solvent (CH3CN) in 10% concentration and a flow rate of 1 mL/min was selected.
(§3) The different pH values (7.00 for HSA and 7.40 for IAM) were measured with an electronic pH meter MP125 and were achieved by preparing suitable buffers of phosphates and chlorides (0.12 g KH2PO4, 0.72 g Na2HPO4·2H2O, 4.00 g NaCl and 0.10 g KCl). Sodium citrate solution was used to determine the dead time, which was deducted from the results at the end of measurements. The elution time of each coumarin analogue was measured at least three times. Retention times were converted into logk values, which represent the logarithm of the retention indexes, using Equation (8). (8) logk=log(tr−t0/t0) where tr is the retention time of the coumarin derivative and t0 is the dead time.

Data set [2] can be described thus: Inhibition of AAPH induced linoleic acid oxidation (lipid peroxidation). From the text: AAPH induced linoleic acid oxidation has been developed as a quick and reliable antioxidant activity assay. It is based on the inhibition of linoleic acid oxidation, initiated by the thermal free radical producer 2,2′-azobis(2-amidinopropane) dihydrochloride (AAPH), providing a measure of how efficiently antioxidants protect against lipid oxidation in vitro. Oxidation of exogenous linoleic acid by AAPH is followed by UV spectrophotometry at 234 nm in a highly diluted sample [38].
For the reference sample in a UV cuvette, 10 μL of the test sample (100 μM diluted in DMSO), 10 μL linoleic acid (LA) (16 mM), and buffer solution (pH 7.4) were added to a final volume of 1ml. For the measurement sample, in a UV cuvette, 10 μL of test sample, 50 μL AAPH (40 mM), 10 μL LA, and buffer solution were added to a final volume of 1 mL. Standard and blank samples were prepared in the same way using DMSO (solvent) instead of the tested coumarin analogues. The absorbance was measured after 2 min at 37 °C at 234 nm. Results were obtained via the following Equation (5):(5) %Inhibition=(Standard−Blank)−(Reference Sample−Measurement Sample)/(Standard−Blank) × 100

Data set [3] is described as follows: Hydroxyl (HO•) free radical scavenging assay (competition with DMSO). From the text:
The hydroxyl (HO^•) free radical is considered as the most toxic and reactive radical among the ROS, leading to cellular or protein damage, membrane destruction, and even to cellular death when encountered in excess concentration. In this context, the evaluation of the hydroxyl radical scavenging activity of the coumarin analogues was essential. Hydroxyl radicals are mainly produced by the Haber–Weiss reaction in the presence of iron or copper ions. In this protocol, iron-EDTA solution, which catalyzes the autooxidation of ascorbic acid, was used as the hydroxyl radical generation system. In general, the hydroxyl radicals formed oxidize the DMSO to form formaldehyde. The reaction involves the initial interaction of DMSO with the hydroxyl radicals to give methyl radicals, with the final product being formaldehyde, which is determined by Nash method. The intensity of the yellow solution formed was measured at 412 nm against a reagent blank.
For the evaluation of hydroxyl radical scavenging ability, the protocol described by Kontogiorgis et al. was used. In short, each sample was tested in quadruplicate (A, B, C, D). For A and B, 10 μL of coumarin analogs diluted in DMSO (100 mM) were added; for C and D were the respective blanks. Standards (containing DMSO solution) and blanks were all prepared in a similar manner; to the latter an equal amount (10 µL) of solvent was added instead of the tested analogues. According to the protocol described by Klein et al., standard solutions of EDTA, FeCl3, ascorbic acid, and buffer solution (pH 7.4) were also added to each of the tested mixtures. All mixtures were incubated at 37 °C for 30 min, and then 1 mL of Nash solution and […] of CCl3COOH solution were added. After a 10min incubation at 60 °C to allow the formation of the yellow mixture, the absorbance was measured at […].
The results were calculated as performance percentages in relation to the respective standards and blanks according to the following Equation (4):(4) % Scavenging ability= Mean OD(A+B)−Mean OD(C+D)/Mean OD(A+B)

The target of data set [4] is T1, human serum albumin (HSA) (Homo sapiens, UniProt P02768).
T1 construct: purchased CHIRAL PAK
Description: HSA chromatography and estimated plasma protein binding. The class given is in vitro ADME. Conditions: for fraction unbound: human, immobilized human serum albumin (HSA) column, Equation (2) from logk10, pH 7.00, read-out: %PPB estimated plasma protein binding (converted); for logk10 (HSA retention factor): pH 7.00, 10% acetonitrile. The protocol: The novel coumarin derivatives were also studied using the immobilized protein column HSA. An HSA chromatographic column provides estimates on the binding affinities of chemicals to human serum albumin, which is the most abundant plasma protein and is related to drug efficacy, drug—drug pharmacokinetic interactions, and drug safety. HSA binding can be considered to represent almost the total plasma protein binding of a drug.
Retention factors on the HSA stationary phase were measured using as eluent PBS at pH = 7.00 and a flow rate of 1 mL/min in the presence of 10% acetonitrile.
(2) % PPB=101∗10^logk10/1+10^logk10
as §1, §2, §3

T1 sequence (P02768 25-609): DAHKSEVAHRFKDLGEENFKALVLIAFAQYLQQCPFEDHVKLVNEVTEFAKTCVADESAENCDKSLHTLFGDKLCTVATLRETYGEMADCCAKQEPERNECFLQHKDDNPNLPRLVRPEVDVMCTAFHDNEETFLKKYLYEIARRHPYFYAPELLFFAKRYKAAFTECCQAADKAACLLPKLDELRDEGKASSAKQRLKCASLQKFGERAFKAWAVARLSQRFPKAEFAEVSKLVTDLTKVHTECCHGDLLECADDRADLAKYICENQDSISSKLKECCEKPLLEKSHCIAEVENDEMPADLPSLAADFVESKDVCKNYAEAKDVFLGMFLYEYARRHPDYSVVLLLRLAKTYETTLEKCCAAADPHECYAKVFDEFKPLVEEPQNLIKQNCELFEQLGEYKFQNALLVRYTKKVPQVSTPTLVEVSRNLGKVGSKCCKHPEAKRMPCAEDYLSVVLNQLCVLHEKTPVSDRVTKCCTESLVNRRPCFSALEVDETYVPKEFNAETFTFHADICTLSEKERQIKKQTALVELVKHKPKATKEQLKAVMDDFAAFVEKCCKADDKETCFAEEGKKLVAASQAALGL

As a reminder, the IC50 is the concentration at which inhibition is half-maximal. A high value points to weaker potency in that assay. Turning to `CC(=O)Oc1ccc(-c2c(C)c3cc(Br)ccc3oc2=O)cc1OC(C)=O` [Compound 3m, 3-(4,5-diacetyloxyphenyl)-6-bromo-4-methyl-chromen-2-one], in data set [1], the “%HOA estimated human oral absorption” value is recorded as 99.6% and the “logkw (IAM retention factor)” value is 3.21. The same compound returned an IC50 in data set [2] of 37.1 µM. Moreover, the “HO^• % (100 μΜ) scavenging” value in data set [3] worked out at 46.7%. For the same compound, in data set [4], the fraction unbound is 0.105 and the “logk10 (HSA retention factor)” value is 0.89.
For `CC(=O)Oc1ccc(-c2c(C)c3cc(Cl)ccc3oc2=O)cc1OC(C)=O` [Compound 3n, 3-(4,5-diacetyloxyphenyl)-6-chloro-4-methyl-chromen-2-one], in data set [1], the “%HOA estimated human oral absorption” value is listed as 99.7% and the “logkw (IAM retention factor)” value was 3.04. Further, it took 84.3 µM to reach half-maximal inhibition in data set [2] (IC50). The “HO^• % (100 μΜ) scavenging” value in data set [3] stood at 65.7%. Further, in data set [4], the fraction unbound was 0.145 and the “logk10 (HSA retention factor)” value is listed as 0.74.
Take `CC(=O)Oc1ccc(-c2c(C)c3cc(Br)cc(Br)c3oc2=O)cc1OC(C)=O` [Compound 3o, 3-(4,5-diacetyloxyphenyl)-6,8-dibromo-4-methyl-chromen-2-one]: in data set [1], the “%HOA estimated human oral absorption” value is 99.6% and the “logkw (IAM retention factor)” value was 3.79. 77.2 µM corresponded to half-maximal inhibition in data set [2] (IC50). Also, the “HO^• % (100 μΜ) scavenging” value in data set [3] came out at 52.1%. Further, in data set [4], the fraction unbound is 0.201 and the “logk10 (HSA retention factor)” value is given as 0.58.
Take `Cc1c(-c2ccccc2Cl)c(=O)oc2cccc(O)c12` [Compound 4a, 3-(2-chlorophenyl)-5-hydroxy-4-methyl-chromen-2-one]: in data set [1], the “%HOA estimated human oral absorption” value is 100% and the “logkw (IAM retention factor)” value was 4.09. The “AAPH % inhibition (100 μΜ)” value in data set [2] was “no”. Further, in data set [3], the “HO^• % (100 μΜ) scavenging” value stood at 37.3%. Moreover, in data set [4], the fraction unbound is 0.13 and the “logk10 (HSA retention factor)” value is reported as 0.79.
Consider `Cc1c(-c2cccc(Cl)c2)c(=O)oc2cccc(O)c12` [Compound 4b, 3-(3-chlorophenyl)-5-hydroxy-4-methyl-chromen-2-one], for which, in data set [1], the “%HOA estimated human oral absorption” value is reported as 99.9% and the “logkw (IAM retention factor)” value is 3.73. Further, the “AAPH % inhibition (100 μΜ)” value in data set [2] is “no”. The “HO^• % (100 μΜ) scavenging” value in data set [3] was 100%. For the same compound, in data set [4], the fraction unbound is 0.201 and the “logk10 (HSA retention factor)” value is reported as 0.58.
With `Cc1c(-c2ccc(Cl)cc2)c(=O)oc2cccc(O)c12` [Compound 4c, 3-(4-chlorophenyl)-5-hydroxy-4-methyl-chromen-2-one], in data set [1], the “%HOA estimated human oral absorption” value is recorded as 100% and the “logkw (IAM retention factor)” value is 4.53. In data set [2], it took 86.6 µM to reach half-maximal inhibition (IC50). The “HO^• % (100 μΜ) scavenging” value in data set [3] came to 48.5%. In addition, in data set [4], the fraction unbound was 0.152 and the “logk10 (HSA retention factor)” value is recorded as 0.72.
Take `Cc1c(-c2ccccc2F)c(=O)oc2cccc(O)c12` [Compound 4d, 3-(2-fluorophenyl)-5-hydroxy-4-methyl-chromen-2-one]: in data set [1], the “%HOA estimated human oral absorption” value is reported as 100% and the “logkw (IAM retention factor)” value is recorded as 4.69. In data set [2], the “AAPH % inhibition (100 μΜ)” value turned out to be 0.0%. The “HO^• % (100 μΜ) scavenging” value in data set [3] stood at 21.9%. For the same compound, in data set [4], the fraction unbound is 0.152 and the “logk10 (HSA retention factor)” value is recorded as 0.72.
Regarding `Cc1c(-c2cccc(F)c2)c(=O)oc2cccc(O)c12` [Compound 4e, 3-(3-fluorophenyl)-5-hydroxy-4-methyl-chromen-2-one], in data set [1], the “%HOA estimated human oral absorption” value is reported as 99.9% and the “logkw (IAM retention factor)” value is recorded as 3.23. The “AAPH % inhibition (100 μΜ)” value in data set [2] is given as 31.0%. For the same compound, the “HO^• % (100 μΜ) scavenging” value in data set [3] amounted to 100%. In data set [4], the fraction unbound is 0.034 and the “logk10 (HSA retention factor)” value is reported as 1.34.
With `Cc1c(-c2ccc(F)cc2)c(=O)oc2cccc(O)c12` [Compound 4f, 3-(4-fluorophenyl)-5-hydroxy-4-methyl-chromen-2-one], in data set [1], the “%HOA estimated human oral absorption” value is 99.7% and the “logkw (IAM retention factor)” value is recorded as 2.62. The IC50 in data set [2] was determined as 86.8 µM. Further, in data set [3], the “HO^• % (100 μΜ) scavenging” value turned out to be 99.4%. Moreover, in data set [4], the fraction unbound was 0.163 and the “logk10 (HSA retention factor)” value is 0.68.
For the compound `Cc1c(-c2ccc(O)cc2)c(=O)oc2ccccc12` [Compound 4h, 3-(4-hydroxyphenyl)-4-methyl-chromen-2-one], in data set [1], the “%HOA estimated human oral absorption” value is on record as 99.8% and the “logkw (IAM retention factor)” value is listed as 3.34. Besides, the “AAPH % inhibition (100 μΜ)” value in data set [2] was “no”. Also, the “HO^• % (100 μΜ) scavenging” value in data set [3] is 72.2%. In data set [4], the fraction unbound is 0.03 and the “logk10 (HSA retention factor)” value is on record as 1.38.
In the case of `Cc1c(-c2ccc(O)cc2)c(=O)oc2ccc(Br)cc12` [Compound 4i, 6-bromo-3-(4-hydroxyphenyl)-4-methyl-chromen-2-one], in data set [1], the “%HOA estimated human oral absorption” value was 99.9% and the “logkw (IAM retention factor)” value was 3.23. The compound further registered an IC50 in data set [2] of 70.7 µM. Besides, in data set [3], the “HO^• % (100 μΜ) scavenging” value turned out to be 100%. In addition, in data set [4], the fraction unbound is 0.043 and the “logk10 (HSA retention factor)” value is recorded as 1.26.
In the case of `Cc1c(-c2ccc(O)cc2)c(=O)oc2ccc(Cl)cc12` [Compound 4j, 6-chloro-3-(4-hydroxyphenyl)-4-methyl-chromen-2-one], in data set [1], the “%HOA estimated human oral absorption” value is listed as 99.5% and the “logkw (IAM retention factor)” value was 3.41. In data set [2], the “AAPH % inhibition (100 μΜ)” value worked out at 36.1%. In data set [3], the “HO^• % (100 μΜ) scavenging” value turned out to be 100%. Also, in data set [4], the fraction unbound was 0.196 and the “logk10 (HSA retention factor)” value was 0.59.
